Data as given in patent publication US20060293307A1, “Oxazolidinone derivatives as antimicrobials” (priority 2002, published 2006).
≈ marks a conversion by molar mass, not a printed value. Read-outs that look alike come from different tables or passages of the source.

How the values were obtained:
H. influenzae 49766 = test: MIC against Haemophilus strains; type: cell-based; conditions: Haemophilus influenzae; s. No. 6, H. influenzae 49766; read-out: MIC
K. oxytoca 49131 = test: MIC, agar incorporation method; type: cell-based; conditions: Klebsiella oxytoca; S. No. 27, K. oxytoca 49131; read-out: MIC
S. aureus ATCC 25923 = test: MIC, agar incorporation method; type: cell-based, Staphylococcus aureus; conditions: Staphylococcus aureus, ATCC25923; S. No. 1, organism cell empty; read-out: MIC
[1] = tested on: S. epidermidis ATCC 12228; test: MIC, agar incorporation method; type: cell-based, Staphylococcus epidermidis; conditions: Staphylococcus epidermidis, ATCC12228
S. pneumoniae AB 10 = test: MIC, agar incorporation method; type: cell-based, Streptococcus pneumoniae; conditions: Streptococcus pneumoniae, AB10; S. No. 35, S. pneumoniae AB 10; read-out: MIC
S. pyogenes 19615 = test: MIC, agar incorporation method; type: cell-based, Streptococcus pyogenes; conditions: Streptococcus pyogenes, 19615
E. faecalis SP 346 (VRE) = test: MIC, agar incorporation method; type: cell-based; conditions: Enterococcus faecalis; S. No. 20, E. faecalis SP 346 (VRE); read-out: MIC
S. pneumoniae AB4 = test: MIC, agar incorporation method; type: cell-based, Streptococcus pneumoniae; conditions: Streptococcus pneumoniae; S. No. 33, S. pneumoniae AB4; read-out: MIC
M. tuberculosis V-3093 = test: MIC against M. tuberculosis strains, agar dilution; type: cell-based, Mycobacterium tuberculosis; conditions: Mycobacterium tuberculosis, V3093, S. No. 14 Mt-, Middle Brook 7H10 + OADC, 37° C., 14-21 days, read-out: MIC
[2] = tested on: M. avium intracellulare 926/98; test: MIC against MAC strains, agar dilution; type: cell-based; conditions: Mycobacterium avium; S. No. 14 Mai-6, M. avium intracellulare 926/98; Middle Brook 7H10 + OADC, 37° C., 14-21 days; read-out: MIC
M. tuberculosis 35801 = test: MIC against M. tuberculosis strains, agar dilution; type: cell-based, Mycobacterium tuberculosis; conditions: Mycobacterium tuberculosis, S. No. 02 Mt-, Middle Brook 7H10 + OADC, 37° C., 14-21 days, read-out: MIC
Moraxella cata. M2 = test: MIC, agar incorporation method; type: cell-based; conditions: S. No. 59, Moraxella cata. M2; read-out: MIC
E. faecalis 21777 = test: MIC, agar incorporation method; type: cell-based; conditions: Enterococcus faecalis; S. No. 18, E. faecalis 21777; read-out: MIC
M. tuberculosis PC [3] = test: MIC against M. tuberculosis strains, agar dilution; type: cell-based, Mycobacterium tuberculosis; conditions: Mycobacterium tuberculosis, S. No. 17 Mt-, Middle Brook 7H10 + OADC, 37° C., 14-21 days, read-out: MIC
S. pyogenes 20361 = test: MIC, agar incorporation method; type: cell-based, Streptococcus pyogenes; conditions: Streptococcus pyogenes; S. No. 53, S. pyogenes 20361; read-out: MIC
S. pneumoniae AB 23 = test: MIC, agar incorporation method; type: cell-based, Streptococcus pneumoniae; conditions: Streptococcus pneumoniae, AB23
E. faecalis 29212 = test: MIC, agar incorporation method; type: cell-based; conditions: Enterococcus faecalis; S. No. 17, E. faecalis 29212; read-out: MIC
M. tuberculosis PC [4] = test: MIC against M. tuberculosis strains, agar dilution; type: cell-based, Mycobacterium tuberculosis; conditions: Mycobacterium tuberculosis, S. No. 18 Mt-, Middle Brook 7H10 + OADC, 37° C., 14-21 days, read-out: MIC
P. aeruginosa ATCC 27853 = test: MIC, agar incorporation method; type: cell-based; conditions: Pseudomonas aeruginosa, ATCC27853; S. No. 28, P. aeruginosa ATCC 27853; read-out: MIC
S. pneumoniae AB 17 = test: MIC, agar incorporation method; type: cell-based, Streptococcus pneumoniae; conditions: Streptococcus pneumoniae, AB17; S. No. 40, S. pneumoniae AB 17; read-out: MIC
S. pneumoniae 1256 = test: MIC, agar incorporation method; type: cell-based, Streptococcus pneumoniae; conditions: Streptococcus pneumoniae; S. No. 56, S. pneumoniae 1256; read-out: MIC
[5] = tested on: S. epidermidis (MRSE) 23760; test: MIC, agar incorporation method; type: cell-based, Staphylococcus epidermidis; conditions: Staphylococcus epidermidis, MRSE
S. pneumoniae 1275 = test: MIC, agar incorporation method; type: cell-based, Streptococcus pneumoniae; conditions: Streptococcus pneumoniae; S. No. 57, S. pneumoniae 1275; read-out: MIC
S. aureus (MRSA) 21299 = test: MIC, agar incorporation method; type: cell-based, Staphylococcus aureus; conditions: Staphylococcus aureus; S. No. 5, S. aureus (MRSA) 21299; read-out: MIC
S. pneumoniae AB 29 = test: MIC, agar incorporation method; type: cell-based, Streptococcus pneumoniae; conditions: Streptococcus pneumoniae, AB29
M. tuberculosis PC [6] = test: MIC against M. tuberculosis strains, agar dilution; type: cell-based, Mycobacterium tuberculosis; conditions: Mycobacterium tuberculosis, S. No. 22 Mt-, Middle Brook 7H10 + OADC, 37° C., 14-21 days, read-out: MIC
S. pneumoniae AB-2 = test: MIC, agar incorporation method; type: cell-based, Streptococcus pneumoniae; conditions: Streptococcus pneumoniae, AB2
S pneumoniae 1294. = test: MIC, agar incorporation method; type: cell-based, Streptococcus pneumoniae; conditions: Streptococcus pneumoniae, 1294.
S. pneumoniae AB 30 = test: MIC, agar incorporation method; type: cell-based, Streptococcus pneumoniae; conditions: Streptococcus pneumoniae, AB30
S. pneumoniae AB-3 = test: MIC, agar incorporation method; type: cell-based, Streptococcus pneumoniae; conditions: Streptococcus pneumoniae, AB3; S. No. 32, S. pneumoniae AB-3; read-out: MIC
M. tuberculosis ATCC = test: MIC against M. tuberculosis strains, agar dilution; type: cell-based, Mycobacterium tuberculosis; conditions: Mycobacterium tuberculosis, S. No. 01.Mt-, Middle Brook 7H10 + OADC, 37° C., 14-21 days, read-out: MIC
[7] = tested on: S. aureus (MRSA 33) Cipro R; test: MIC, agar incorporation method; type: cell-based, Staphylococcus aureus; conditions: Staphylococcus aureus; S. No. 7, S. aureus (MRSA 33) Cipro R; read-out: MIC

CC(=O)NC[C@H]1CN(c2ccc(N3CCN(c4ccc([N+](=O)[O-])s4)CC3)c(F)c2)C(=O)O1 [Compound No. 1, (S)—N-[[3-[3-Fluoro-4-[4-(5-nitro-2-thienyl)-1-piperazinyl]phenyl]-2-oxo-5-oxazolidinyl]methyl]acetamide]
MIC (H. influenzae 49766): 8 µg/mL (≈ 17.3 µM) | MIC (K. oxytoca 49131): > 16 µg/mL | MIC (S. aureus ATCC 25923): 0.25 µg/mL (≈ 0.539 µM) | MIC [1]: 0.125 µg/mL (≈ 0.27 µM) | MIC (S. pneumoniae AB 10): 0.06 µg/mL (≈ 0.129 µM) | MIC (S. pyogenes 19615): 0.125 µg/mL (≈ 0.27 µM) | MIC (E. faecalis SP 346 (VRE)): 0.25 µg/mL (≈ 0.539 µM) | MIC (S. pneumoniae AB4): 0.06 µg/mL (≈ 0.129 µM) | MIC (M. tuberculosis V-3093): ≤ 0.125 µg/mL | MIC [2]: < 0.12 µg/mL | MIC (M. tuberculosis 35801): ≤ 0.125 µg/mL | MIC (Moraxella cata. M2): 0.25 µg/mL (≈ 0.539 µM) | MIC (E. faecalis 21777): 0.25 µg/mL (≈ 0.539 µM) | MIC (M. tuberculosis PC [3]): 0.25 µg/mL | MIC (S. pyogenes 20361): 0.06 µg/mL (≈ 0.129 µM) | MIC (S. pneumoniae AB 23): 0.125 µg/mL (≈ 0.27 µM) | MIC (E. faecalis 29212): 0.25 µg/mL (≈ 0.539 µM) | MIC (M. tuberculosis PC [4]): 0.25 µg/mL | MIC (P. aeruginosa ATCC 27853): > 16 µg/mL | MIC (S. pneumoniae AB 17): 0.06 µg/mL (≈ 0.129 µM) | MIC (S. pneumoniae 1256): 0.25 µg/mL (≈ 0.539 µM) | MIC [5]: 0.125 µg/mL (≈ 0.27 µM) | MIC (S. pneumoniae 1275): 0.06 µg/mL (≈ 0.129 µM) | MIC (S. aureus (MRSA) 21299): 0.25 µg/mL (≈ 0.539 µM) | MIC (S. pneumoniae AB 29): 0.125 µg/mL (≈ 0.27 µM) | MIC (M. tuberculosis PC [6]): 0.5 µg/mL | MIC (S. pneumoniae AB-2): 0.125 µg/mL (≈ 0.27 µM) | MIC (S pneumoniae 1294.): 0.125 µg/mL (≈ 0.27 µM) | MIC (S. pneumoniae AB 30): 0.125 µg/mL (≈ 0.27 µM) | MIC (S. pneumoniae AB-3): 0.06 µg/mL (≈ 0.129 µM) | MIC (M. tuberculosis ATCC): ≤ 0.125 µg/mL | MIC [7]: 0.25 µg/mL (≈ 0.539 µM)
